Values quoted from earlier work in patent US20220378880A1, “PHARMACEUTICAL COMPOSITIONS OF GHRH ANALOGS AND USES THEREOF” (Theratechnologies Inc., priority 2019, published 2022).

[1] = healthy subjects, single SC 2 mg dose

CC/C=C/CC(=O)N[C@@H](Cc1ccc(O)cc1)C(=O)N[C@@H](C)C(=O)N[C@@H](CC(=O)O)C(=O)N[C@@H](C)C(=O)N[C@H](C(=O)N[C@@H](Cc1ccccc1)C(=O)N[C@H](C(=O)N[C@@H](CC(N)=O)C(=O)N[C@@H](CO)C(=O)N[C@@H](Cc1ccc(O)cc1)C(=O)N[C@@H](CCCNC(=N)N)C(=O)N[C@@H](CCCCN)C(=O)N[C@H](C(=O)N[C@@H](CC(C)C)C(=O)NCC(=O)N[C@@H](CCC(N)=O)C(=O)N[C@@H](CC(C)C)C(=O)N[C@@H](CO)C(=O)N[C@@H](C)C(=O)N[C@@H](CCCNC(=N)N)C(=O)N[C@@H](CCCCN)C(=O)N[C@@H](CC(C)C)C(=O)N[C@@H](CC(C)C)C(=O)N[C@@H](CCC(N)=O)C(=O)N[C@@H](CC(=O)O)C(=O)N[C@H](C(=O)N[C@@H](CCSC)C(=O)N[C@@H](CO)C(=O)N[C@@H](CCCNC(=N)N)C(=O)N[C@@H](CCC(N)=O)C(=O)N[C@@H](CCC(N)=O)C(=O)NCC(=O)N[C@@H](CCC(=O)O)C(=O)N[C@@H](CO)C(=O)N[C@@H](CC(N)=O)C(=O)N[C@@H](CCC(N)=O)C(=O)N[C@@H](CCC(=O)O)C(=O)N[C@@H](CCCNC(=N)N)C(=O)NCC(=O)N[C@@H](C)C(=O)N[C@@H](CCCNC(=N)N)C(=O)N[C@@H](C)C(=O)N[C@@H](CCCNC(=N)N)C(=O)N[C@@H](CC(C)C)C(N)=O)[C@@H](C)CC)C(C)C)[C@@H](C)O)[C@@H](C)CC [tesamorelin, trans-3-hexenoyl-GHRH(1-44)-NH2]
Absolute bioavailability (healthy adult subjects, SC 2 mg dose): less than 4% | Extent of absorption, mean (CV) [1]: 634.6 (72.4) pg·h/mL | Peak tesamorelin concentration (Cmax), mean (CV) [1]: 2874.6 (43.9) pg/mL | Thalf (expected) (single SC 2 mg dose): 0.4 h | Tmax (expected) (single SC 2 mg dose, median): 9 min
